According to ChEMBL document CHEMBL1136709, “Synthesis and estrogen receptor binding affinities of 7-hydroxy-3-(4-hydroxyphenyl)-4H-1-benzopyran-4-ones containing a basic side chain” (Bioorg Med Chem Lett, 2003):

Target: T1, Estrogen receptor (Homo sapiens, UniProt P03372)
T1 sequence (P03372 whole entry): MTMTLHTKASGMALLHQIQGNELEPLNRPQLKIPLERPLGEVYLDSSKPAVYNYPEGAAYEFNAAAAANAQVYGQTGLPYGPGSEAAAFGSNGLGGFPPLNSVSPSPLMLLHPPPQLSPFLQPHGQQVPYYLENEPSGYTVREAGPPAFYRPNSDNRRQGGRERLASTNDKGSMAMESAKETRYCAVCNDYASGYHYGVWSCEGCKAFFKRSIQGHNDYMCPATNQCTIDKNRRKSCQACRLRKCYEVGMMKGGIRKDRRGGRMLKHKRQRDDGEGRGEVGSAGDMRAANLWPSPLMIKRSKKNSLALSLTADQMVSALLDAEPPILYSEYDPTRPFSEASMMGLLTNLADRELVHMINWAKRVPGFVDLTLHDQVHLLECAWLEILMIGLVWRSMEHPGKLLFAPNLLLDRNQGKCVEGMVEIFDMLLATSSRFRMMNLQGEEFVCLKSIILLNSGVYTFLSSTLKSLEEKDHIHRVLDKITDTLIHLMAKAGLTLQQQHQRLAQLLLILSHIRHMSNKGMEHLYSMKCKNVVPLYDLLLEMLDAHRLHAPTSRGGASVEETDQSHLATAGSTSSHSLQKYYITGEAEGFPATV
Test: Binding affinity for Estrogen receptor alpha

Compound	Ki	EC50
O=C(c1ccc(OCCN2CCCCC2)cc1)c1oc2cc(O)ccc2c(=O)c1-c1ccc(O)cc1	3.9 nM	
O=c1c(-c2ccc(O)cc2)c(Sc2ccc(OCCN3CCCCC3)cc2)oc2cc(O)ccc12		770 nM
O=c1c(-c2ccc(O)cc2)c(Oc2ccc(OCCN3CCCCC3)cc2)oc2cc(O)ccc12		200 nM
O=c1c(-c2ccc(O)cc2)c(Oc2ccc(O)cc2)oc2cc(O)ccc12		1740 nM
O=c1c(-c2ccc(O)cc2)c(Sc2ccc(O)cc2)oc2cc(O)ccc12		1860 nM
